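Where inhibition never reached the appropriate level, the endpoint shown equals the highest concentration tested. Otherwise, values were interpolated linearly from a five-concentration, 48-hour dose response in 96-well plates. The concentration for full growth arrest is given as TGI.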
How the values were obtained:
Experiment in all cases: inhibition of tumour cell growth, NCI panel, 48 h
IGROV1 ovarian = system: IGROV1 ovarian
OVCAR-8 ovarian = system: OVCAR-8 ovarian
CAKI-1 renal = system: CAKI-1 renal
UACC-62 melanoma = system: UACC-62 melanoma
CCRF-CEM leukemia = system: CCRF-CEM leukemia
EKVX NSCLC = system: EKVX NSCLC
786-0 renal = system: 786-0 renal
DU-145 prostate = system: DU-145 prostate
HCT-116 colon = system: HCT-116 colon
SK-MEL-5 melanoma = system: SK-MEL-5 melanoma

SMILES	TGI (IGROV1 ovarian) [µM]	TGI (OVCAR-8 ovarian) [µM]	TGI (CAKI-1 renal) [µM]	TGI (UACC-62 melanoma) [µM]	TGI (CCRF-CEM leukemia) [µM]	TGI (EKVX NSCLC) [µM]	TGI (786-0 renal) [µM]	TGI (DU-145 prostate) [µM]	TGI (HCT-116 colon) [µM]	TGI (SK-MEL-5 melanoma) [µM]
O=C(CNc1ccccn1)Nn1cnc2ccc(S(=O)(=O)Nc3ccccn3)cc2c1=O	> 100	> 100	> 100	> 100	> 100	> 100	> 100	> 100	> 100	–
CC(C)/C=C1\CCC(CN(C)C)C1=O (stereo not drawn)	11.4	6.97	4.21	32.6	5.34	15.5	1.25	3.21	2.5	12.4
N#CCCn1[nH]c(=O)c(Cl)c(Cl)c1=O	33.6	32.9	–	–	–	12.5	39.6	–	29.1	–
O=[N+]([O-])c1ccc(C2=Nc3ccccc3S(=O)C(c3ccccc3)C2)cc1 (stereo not drawn)	36.9	> 100	37.4	29.9	36.9	45.1	35.1	–	–	–
FC(F)(F)c1ccc(C2ON=C(c3ccccc3)N2C23CC4CC(CC(C4)C2)C3)cc1 (stereo not drawn)	> 10	> 10	> 10	> 10	> 10	> 10	> 10	> 10	> 10	> 10
CCOC(=O)c1c2ccc(/C=C/c3ccccn3)ccc-2c(C(=O)OCC)c1N	> 100	–	> 100	> 100	> 100	> 100	> 100	–	–	> 100
CCCCCCCC/C=C1\CCC(CN(C)C)C1=O (stereo not drawn)	20.8	9.67	10	19.6	6.96	21.6	2.88	–	7.34	21.7
CC1=NN(c2nc(N)nc(NS(=O)(=O)c3cc(C)c(Cl)cc3S)n2)C(C)(C)C1	> 10	> 10	> 10	–	> 10	> 10	> 10	> 10	> 10	> 10
CC(=O)OI1NC(=O)c2ccccc21	> 100	> 100	–	> 100	> 100	> 100	> 100	> 100	> 100	> 100
CCOC1OC(CO)C(O)CC1n1ccc(=O)[nH]c1=O (stereo not drawn)	> 100	> 100	> 100	> 100	–	> 100	> 100	> 100	> 100	> 100
CC1=C(c2nc3ccccc3s2)C(=O)OC1(C)C	–	> 100	> 100	> 100	> 100	> 100	> 100	–	> 100	> 100
CCC(NC(C)c1ccccc1)C(=O)c1ccc(OCc2ccccc2)c(OCc2ccccc2)c1 (stereo not drawn)	> 100	> 100	> 100	> 100	–	> 100	> 100	> 100	> 100	> 100
COCC(C)(C)N=CN1Cc2cc3ccccc3nc2C1	> 100	> 100	> 100	> 100	> 100	> 100	> 100	–	> 100	> 100
CC1(C)OP(=O)(c2ccccc2)C=C1Sc1ccc([N+](=O)[O-])cc1[N+](=O)[O-] (stereo not drawn)	> 100	> 100	> 100	> 100	–	> 100	> 100	> 100	> 100	> 100
Nc1nc2c(N)cc(C(F)(F)F)cc2nc1-c1ccccc1	> 100	> 100	> 100	> 100	> 100	> 100	> 100	–	> 100	> 100
O=C1C(c2ccccc2)=C(c2ccccc2)C(c2ccc(Cc3ccc(C4=C(c5ccccc5)C(=O)C(c5ccccc5)=C4c4ccccc4)cc3)cc2)=C1c1ccccc1	> 100	> 100	> 100	> 100	> 100	> 100	> 100	–	> 100	> 100
CCS(=O)C(=O)N(O)c1ccc(Cl)cc1 (stereo not drawn)	–	–	38.5	22.9	63.2	> 100	64.3	> 100	> 100	74.1
C=CCCC1(O)C(O)C(CO)O[C@H](O[C@@]2(CO)OC(CO)C(O)C2O)C1O (stereo partly drawn)	> 100	> 100	> 100	–	> 100	> 100	> 100	> 100	> 100	> 100
CCc1n[nH]c(=O)n1CCCCCCCCn1c(CC)n[nH]c1=O	> 100	> 100	> 100	> 100	> 100	> 100	> 100	–	> 100	> 100
Cc1cc2ncn(-c3nc4ccccc4nc3C(C#N)S(C)(=O)=O)c2cc1C (stereo not drawn)	> 100	> 100	> 100	> 100	> 100	> 100	> 100	–	> 100	> 100
CC(C)N(C(=O)C12C3C4C1C1C2C3C41C#N)C(C)C (stereo not drawn)	> 100	> 100	> 100	> 100	> 85.1	> 100	> 100	–	> 100	> 100
O=C(NCCN1CCCCC1)c1ccc(Br)cc1	> 100	> 100	> 100	–	–	> 100	> 100	> 100	> 100	> 100
CC(C)(C)N=CN1C=Cc2nc3ccccc3cc2C1	> 100	> 100	> 100	> 100	> 100	> 100	> 100	–	> 100	> 100

Reference: PubChem BioAssay (NCI)
